Where two headings read alike, the source gives them in different places.
Tests used:
Type in all cases: in vivo
[1] = test system: goosegrass (Eleusine indica); assay: Test C pre/postemergence; conditions: Eleusine indica; for pest or weed control at 62 g/ha: 62 g ai/ha; for pest or weed control at 125 g/ha: 125 g ai/ha; for pest or weed control at 250 g/ha: 250 g ai/ha; for pest or weed control at 500 g/ha: 500 g ai/ha; for pest or weed control at 31 g/ha: 31 g ai/ha
Description: (§1) Seeds or nutlets of plant species selected from bermudagrass (Cynodon dactylon), Surinam grass (Brachiaria decumbens), cocklebur (Xanthium strumarium), corn (Zea mays), crabgrass (Digitaria sanguinalis), woolly cupgrass (Eriochloa villosa), giant foxtail (Setaria faberii), goosegrass (Eleusine indica), johnsongrass (Sorghum halepense), kochia (Kochia scoparia), lambsquarters (Chenopodium album), morningglory (Ipomoea coccinea), eastern black nightshade (Solanum ptycanthum), yellow nutsedge (Cyperus esculentus), pigweed (Amaranthus retroflexus), common ragweed (Ambrosia elatior), soybean (Glycine max), common (oilseed) sunflower (Helianthus annuus), and velvetleaf (Abutilon theophrasti) were planted and treated preemergence with test chemicals formulated in a non-phytotoxic solvent mixture which included a surfactant.
(§2) At the same time, plants selected from these crop and weed species and also winter barley (Hordeum vulgare), blackgrass (Alopecurus myosuroides), canarygrass (Phalaris minor), chickweed (Stellaria media), downy brome (Bromus tectorum), green foxtail (Setaria viridis), Italian ryegrass (Lolium multiflorum), wheat (Triticum aestivum), wild oat (Avena fatua) and windgrass (Apera spica-venti) were treated with postemergence applications of some of the test chemicals formulated in the same manner. Plants ranged in height from 2 to 18 cm (1- to 4-leaf stage) for postemergence treatments. Plant species in the flooded paddy test consisted of rice (Oryza sativa), umbrella sedge (Cyperus difformis), duck salad (Heteranthera limosa) and barnyardgrass (Echinochloa crus-galli) grown to the 2-leaf stage for testing. Treated plants and controls were maintained in a greenhouse for 12 to 14 days, after which time all species were compared to controls and visually evaluated. Plant response ratings, summarized in Table C, are based on a scale of 0 to 100 where 0 is no effect and 100 is complete control. A dash (-) response means no test result.

[2] = test system: lambsquarters (Chenopodium album); assay: Test C pre/postemergence; conditions: Chenopodium album; for pest or weed control at 62 g/ha: 62 g ai/ha; for pest or weed control at 125 g/ha: 125 g ai/ha; for pest or weed control at 250 g/ha: 250 g ai/ha; for pest or weed control at 500 g/ha: 500 g ai/ha; for pest or weed control at 31 g/ha: 31 g ai/ha
Description: as §1, §2

corn (Zea mays) = assay: Test C pre/postemergence; conditions: Zea mays; for Corn plant response rating (crop injury, 0 = no effect, 100 = complete kill) at 62 g/ha: 62 g ai/ha; for Corn plant response rating (crop injury, 0 = no effect, 100 = complete kill) at 125 g/ha: 125 g ai/ha; for Corn plant response rating (crop injury, 0 = no effect, 100 = complete kill) at 250 g/ha: 250 g ai/ha; for Corn plant response rating (crop injury, 0 = no effect, 100 = complete kill) at 500 g/ha: 500 g ai/ha; for Corn plant response rating (crop injury, 0 = no effect, 100 = complete kill) at 31 g/ha: 31 g ai/ha
Description: as §1, §2

soybean (Glycine max) = assay: Test C pre/postemergence; conditions: Glycine max; for plant injury at 62 g/ha: 62 g ai/ha; for plant injury at 125 g/ha: 125 g ai/ha; for plant injury at 250 g/ha: 250 g ai/ha; for plant injury at 500 g/ha: 500 g ai/ha; for plant injury at 31 g/ha: 31 g ai/ha
Description: as §1, §2

[3] = test system: chickweed (Stellaria media); assay: Test C postemergence; conditions: Stellaria media, post-emergence; for pest or weed control at 62 g/ha: 62 g ai/ha; for pest or weed control at 62 g/ha / pest or weed control at 125 g/ha: scale 0 to 100 (0 no effect, 100 complete control), read-out: Chickweed plant response rating; for pest or weed control at 125 g/ha: 125 g ai/ha; for pest or weed control at 250 g/ha: 250 g ai/ha
Summary of the method: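 Injury scored visually 12–14 days after application on 0–100 scale (100 = complete control), relative to controls. Compounds, formulated with surfactant in non-phytotoxic solvent, applied to soil at planting (pre) or to 1- to 4-leaf plants 2–18 cm tall (post) in greenhouse.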

[4] = post-emergence, Postemergence, scale 0 to 100 (0 no effect, 100 complete control), read-out: Goosegrass plant response rating
[5] = post-emergence, Postemergence, scale 0 to 100, read-out: Plant response rating, Goosegrass
[6] = pre-emergence, Preemergence, scale 0 to 100, 0 no effect, 100 complete control, read-out: Plant response rating, Goosegrass
[7] = pre-emergence, Preemergence, scale 0 to 100, read-out: Plant response rating, Goosegrass
[8] = post-emergence, Postemergence, scale 0 to 100 (0 no effect, 100 complete control), read-out: Lambsquarters plant response rating
[9] = post-emergence, Postemergence, scale 0 to 100, read-out: Plant response rating, Lambsquarters
[10] = pre-emergence, Preemergence, scale 0 to 100, 0 no effect, 100 complete control, read-out: Plant response rating, Lambsquarters
[11] = pre-emergence, Preemergence, scale 0 to 100, read-out: Plant response rating, Lambsquarters
[12] = post-emergence, Postemergence, scale 0 to 100 (0 no effect, 100 complete control), read-out: Corn plant response rating
[13] = post-emergence, Postemergence, scale 0 to 100
[14] = pre-emergence, Preemergence, scale 0 to 100, 0 no effect, 100 complete control, read-out: Plant response rating, Corn
[15] = pre-emergence, Preemergence, scale 0 to 100, read-out: Plant response rating, Corn
[16] = pre-emergence, Preemergence, scale 0 to 100
[17] = post-emergence, Postemergence, scale 0 to 100 (0 no effect, 100 complete control), read-out: Soybean plant response rating
[18] = post-emergence, Postemergence, scale 0 to 100, read-out: Plant response rating, Soybean
[19] = pre-emergence, Preemergence, scale 0 to 100, 0 no effect, 100 complete control, read-out: Plant response rating, Soybean
[20] = pre-emergence, Preemergence, scale 0 to 100, read-out: Plant response rating, Soybean
[21] = scale 0 to 100, read-out: Plant response rating, Chickweed

Q: What does the source list for `Nc1nc(C2CC2)nc(C(=O)OCc2ccccc2)c1Br` [Compound 22, phenylmethyl 6-amino-5-bromo-2-cyclopropyl-4-pyrimidinecarboxylate]?
A: pest or weed control at 62 g/ha [1, 4]: 10%; pest or weed control at 125 g/ha [1, 4]: 10%; pest or weed control at 250 g/ha [1, 5]: 20%; pest or weed control at 500 g/ha [1, 5]: 25%; pest or weed control at 62 g/ha [1, 6]: 0%; pest or weed control at 125 g/ha [1, 7]: 0%; pest or weed control at 250 g/ha [1, 7]: 80%; pest or weed control at 500 g/ha [1, 7]: 100%; pest or weed control at 62 g/ha [2, 8]: 90%; pest or weed control at 125 g/ha [2, 8]: 95%; pest or weed control at 250 g/ha [2, 9]: 95%; pest or weed control at 500 g/ha [2, 9]: 95%; pest or weed control at 62 g/ha [2, 10]: 100%; pest or weed control at 125 g/ha [2, 11]: 100%; pest or weed control at 250 g/ha [2, 11]: 100%; pest or weed control at 500 g/ha [2, 11]: 100%; Corn plant response rating (crop injury, 0 = no effect, 100 = complete kill) at 62 g/ha (corn (Zea mays); [12]): 30%; Corn plant response rating (crop injury, 0 = no effect, 100 = complete kill) at 125 g/ha (corn (Zea mays); [12]): 40%; Corn plant response rating (crop injury, 0 = no effect, 100 = complete kill) at 250 g/ha (corn (Zea mays); [13]): 60%; Corn plant response rating (crop injury, 0 = no effect, 100 = complete kill) at 500 g/ha (corn (Zea mays); [13]): 65%; Corn plant response rating (crop injury, 0 = no effect, 100 = complete kill) at 62 g/ha (corn (Zea mays); [14]): 40%; Corn plant response rating (crop injury, 0 = no effect, 100 = complete kill) at 125 g/ha (corn (Zea mays); [15]): 50%; Corn plant response rating (crop injury, 0 = no effect, 100 = complete kill) at 250 g/ha (corn (Zea mays); [16]): 65%; Corn plant response rating (crop injury, 0 = no effect, 100 = complete kill) at 500 g/ha (corn (Zea mays); [16]): 65%; plant injury at 62 g/ha (soybean (Glycine max); [17]): 95%; plant injury at 125 g/ha (soybean (Glycine max); [17]): 100%; plant injury at 250 g/ha (soybean (Glycine max); [18]): 100%; plant injury at 500 g/ha (soybean (Glycine max); [18]): 100%; plant injury at 62 g/ha (soybean (Glycine max); [19]): 95%; plant injury at 125 g/ha (soybean (Glycine max); [20]): 95%; plant injury at 250 g/ha (soybean (Glycine max); [20]): 100%; plant injury at 500 g/ha (soybean (Glycine max); [20]): 100%; pest or weed control at 62 g/ha [3]: 30%; pest or weed control at 125 g/ha [3]: 60%; pest or weed control at 250 g/ha [3, 21]: 85%; pest or weed control at 500 g/ha ([3]; 500 g ai/ha, scale 0 to 100, read-out: Plant response rating, Chickweed): 90%

Q: Which results are given for `CCOC(=O)c1nc(C2CC2)nc(N)c1F` [Compound 30]?
A: pest or weed control at 31 g/ha ([1]; post-emergence, Postemergence, read-out: Plant response rating (scale of 0 to 100), Goosegrass): 0%; pest or weed control at 62 g/ha [1, 4]: 0%; pest or weed control at 125 g/ha [1, 4]: 0%; pest or weed control at 250 g/ha [1, 5]: 0%; pest or weed control at 31 g/ha [1, 6]: 0%; pest or weed control at 62 g/ha [1, 6]: 30%; pest or weed control at 125 g/ha [1, 7]: 35%; pest or weed control at 250 g/ha [1, 7]: 50%; pest or weed control at 31 g/ha ([2]; post-emergence, Postemergence, read-out: Plant response rating (scale of 0 to 100), Lambsquarters): 50%; pest or weed control at 62 g/ha [2, 8]: 60%; pest or weed control at 125 g/ha [2, 8]: 80%; pest or weed control at 250 g/ha [2, 9]: 90%; pest or weed control at 31 g/ha [2, 10]: 0%; pest or weed control at 62 g/ha [2, 10]: 80%; pest or weed control at 125 g/ha [2, 11]: 85%; pest or weed control at 250 g/ha [2, 11]: 90%; Corn plant response rating (crop injury, 0 = no effect, 100 = complete kill) at 31 g/ha (corn (Zea mays); post-emergence, Postemergence, read-out: Plant response rating (scale of 0 to 100), Corn): 0%; Corn plant response rating (crop injury, 0 = no effect, 100 = complete kill) at 62 g/ha (corn (Zea mays); [12]): 0%; Corn plant response rating (crop injury, 0 = no effect, 100 = complete kill) at 125 g/ha (corn (Zea mays); [12]): 0%; Corn plant response rating (crop injury, 0 = no effect, 100 = complete kill) at 250 g/ha (corn (Zea mays); [13]): 50%; Corn plant response rating (crop injury, 0 = no effect, 100 = complete kill) at 31 g/ha (corn (Zea mays); [14]): 0%; Corn plant response rating (crop injury, 0 = no effect, 100 = complete kill) at 62 g/ha (corn (Zea mays); [14]): 0%; Corn plant response rating (crop injury, 0 = no effect, 100 = complete kill) at 125 g/ha (corn (Zea mays); [15]): 0%; Corn plant response rating (crop injury, 0 = no effect, 100 = complete kill) at 250 g/ha (corn (Zea mays); [16]): 0%; plant injury at 31 g/ha (soybean (Glycine max); post-emergence, Postemergence, read-out: Plant response rating (scale of 0 to 100), Soybean): 80%; plant injury at 62 g/ha (soybean (Glycine max); [17]): 90%; plant injury at 125 g/ha (soybean (Glycine max); [17]): 90%; plant injury at 250 g/ha (soybean (Glycine max); [18]): 95%; plant injury at 31 g/ha (soybean (Glycine max); [19]): 0%; plant injury at 62 g/ha (soybean (Glycine max); [19]): 5%; plant injury at 125 g/ha (soybean (Glycine max); [20]): 5%; plant injury at 250 g/ha (soybean (Glycine max); [20]): 70%; pest or weed control at 31 g/ha ([3]; 31 g ai/ha, read-out: Plant response rating (scale of 0 to 100), Chickweed): 40%; pest or weed control at 62 g/ha [3]: 50%; pest or weed control at 125 g/ha [3]: 65%; pest or weed control at 250 g/ha [3, 21]: 85%

Reference: patent US8802597B2, “Herbicidal pyrimidines” (E I du Pont de Nemours and Company, priority 2003, dated 2014)
